From patent US5840843A, “Synthetic polypeptides as inhibitors of HIV-1” (priority 1995, dated 1998)
Bridge positions count the residues as written; N and C are the ends. Ends that are not written are not given here. I, II: the chains in the order shown.

Tests used:
[1] = system: AZT-resistant mutant of HIV-1; assay: Inhibition of infection by AZT-resistant HIV-1 mutant; type: cell-based; conditions: FIG. 6
Experimental: (§1) For virus inhibition assays, H9, MT-2 and U937 cells were used as target cells. Five HIV-1 isolates (IIIB, MN, RF, SF2, and an AZT-resistant mutant) were cultivated in MT-2 cells, collected, and aliquoted.
(§2) HIV-1 infectivity was determined by two distinct methods; an ELISA measuring HIV-1 core protein p24 production and a colorimetric assay for HIV-mediated cytopathogenesis. Briefly, 1×10^4 MT-2 cells in 96 well plates were infected with dilutions of HIV-1IIIB in 200 μl RPMI 1640 medium with 10% FBS. After 24 hrs., half of the culture medium was changed. On the fourth day after incubation at 37° C., 100 μl of culture supernatant was collected from each well and an equal volume of fresh medium was added to the wells. The collected supernatants were mixed with equal volumes of 5% Triton X-100 and assayed for p24 using a kit from Coulter Immunology (Hialeah, FL). On the sixth day post infection, an indicator XTT tetrazolium dye (1 mg/ml; 50μl/well; PolySciences, Inc., Warrington, Pa.) was added to the cells. After a 4 hr. period, intracellular formazan was determined calorimetrically at 450 nm. The percentage of cytopathogenesis was calculated using the following formula: [(OD450 in negative control-OD450 in experiment)/(OD450 in negative control-OD450 in positive control)] ×100.

HIV-1IIIB [2] = assay: Inhibition of HIV-1IIIB replication in MT-2 cells (p24 ELISA); type: cell-based
Experimental: as §1, §2
Twenty-nine peptides from HIV-1IIIB gp160 (gp120/gp41) and 21 peptides from V3 hypervariable loops of distinct HIV-1 isolates were screened for their inhibitory activity on HIV-1 replication and HIV-1-mediated cytopathogenesis in MT-2 cells.

HIV-1IIIB [3] = assay: Inhibition of HIV-1IIIB-mediated cytopathogenesis in MT-2 cells (XTT colorimetric assay); type: cell-based
Experimental: as §1, §2
Additionally, studies were performed to determine whether or not any of the peptides could inhibit the cytopathogenesis mediated by HIV-1.

[4] = system: HIV-1IIIB infected H9 cells; assay: Inhibition of fusion of HIV-1IIIB infected H9 cells with uninfected H9 cells (syncytium count); type: cell-based
Experimental: The inhibitory effect of the peptide of the present invention on the fusion of HIV-1 infected cells with uninfected cells was also determined. In brief, 1.25×10^4 HIV-1IIIB infected H9 cells were mixed with the peptide and an equal number of uninfected H9 cells.

MT-2 cells = assay: Cytotoxicity of peptides for MT-2 cells; conditions: for cytotoxicity: MT-2 cells
Experimental: Subsequently, cytotoxicity studies were performed using MT-2 cells at a final concentration of 12.5 μg/ml.

HIV-1IIIB [5] = assay: Inhibition of HIV-1IIIB replication in U937 cells (p24 production); type: cell-based; conditions: monocytic cell line U937, FIG. 4
Experimental: as §1, §2

HIV-1 isolate MN = assay: Inhibition of infection by HIV-1 isolate MN; type: cell-based; conditions: FIG. 6
Experimental: as §1, §2

HIV-1 isolate RF = assay: Inhibition of infection by HIV-1 isolate RF; type: cell-based; conditions: FIG. 6
Experimental: as §1, §2

HIV-1 isolate SF2 = assay: Inhibition of infection by HIV-1 isolate SF2; type: cell-based; conditions: FIG. 6
Experimental: as §1, §2

HIV-1 = conditions: FIG. 7
Experimental: Rabbit antiserum directed against this peptide was prepared. […] The mixture was tested for antiviral activity.

Row | Compound | inhibition of infection (replication and cytopathogenesis) [1] | inhibition of infection (replication and cytopathogenesis) (HIV-1IIIB [2]; HIV-1 isolate IIIB, FIG. 6) | ED50 for inhibition of HIV-1IIIB replication (decrease of gag protein p24 production) (HIV-1IIIB [2]; MT-2 cells, FIG. 5) [µM] | inhibition of HIV-1 replication, dimer compared with monomer (HIV-1IIIB [2]; comparative assay, FIG. 8) | inhibition of HIV-1 replication (decrease of gag protein p24 synthesis) (HIV-1IIIB [2]; final concentration 12.5 μg/ml, MT-2 cells, HIV-1IIIB, FIG. 1) | ED50 for inhibition of cytopathogenesis mediated by HIV-1IIIB (HIV-1IIIB [3]; MT-2 cells, FIG. 5) [µM] | inhibition of cytopathogenesis mediated by HIV-1 (HIV-1IIIB [3]; MT-2 cells, HIV-1IIIB, FIG. 2) | inhibition of HIV-1-mediated cytopathogenesis, dimer compared with monomer (HIV-1IIIB [3]; comparative assay, FIG. 8) | ED50 for inhibition of cell fusion ([4]; HIV-1IIIB infected H9 cells, FIG. 5) [µM] | inhibition of cell fusion, dimer compared with monomer ([4]; comparative assay, FIG. 8) | cytotoxicity (MT-2 cells; concentration increased to 11.145 μM) | cytotoxicity (MT-2 cells; final concentration 12.5 μg/ml, FIG. 3) | 50% cytotoxic dose (CD50) (MT-2 cells; colorimetric assay) | inhibition of p24 production (HIV-1IIIB [5]) | inhibition of infection (replication and cytopathogenesis) (HIV-1 isolate MN) | inhibition of infection (replication and cytopathogenesis) (HIV-1 isolate RF) | inhibition of infection (replication and cytopathogenesis) (HIV-1 isolate SF2) | inhibitory activity on p24 production after incubation with antiserum (HIV-1; peptide 1 μg/ml incubated with rabbit anti-(637-666) antiserum, 37° C., 30 minutes) | inhibition of p24 production (HIV-1; peptide 1 μg/ml, in the absence of antiserum)
1 | Cc1cn([C@H]2C[C@H](N=[N+]=[N-])[C@@H](CO)O2)c(=O)[nH]c1=O [AZT, 3'azido-3'deoxythymidine, reference compound] | could not be effectively neutralized | – | – | – | – | – | – | – | – | – | – | – | – | – | – | – | – | – | –
2 | I: EWDREINNYTSLIHSLIEESQNQQEKNEQEGGC / II: EWDREINNYTSLIHSLIEESQNQQEKNEQEGGC (disulfide I:33-II:33) [peptide (637-666)] | effectively inhibited infections | effectively inhibited infections | 0.101 | much more effective | significantly inhibited HIV-1 replication | 0.142 | markedly inhibited cytopathogenesis | much more effective | 0.16 | much more effective | significant cytotoxicity remained undetectable | did not exhibit any cytotoxicity | > 11,145 nM | significantly inhibited p24 production | effectively inhibited infections | effectively inhibited infections | effectively inhibited infections | significantly blocked | significantly inhibited p24 production
